We go through ten compounds from patent US5817641A, “Treatment of enterotoxigenic diarrhea with 2-substituted adenosine derivatives” (priority 1997, dated 1998).

Series [1] deals with T1, guanylyl cyclase C (GC-C) (Rattus norvegicus, UniProt P23897).
T1 construct: The mucosal layer was scraped from the intestine and homogenized; from tissue; host or cells: small intestinal mucosa of Sprague-Dawley rats (100,000×g washed membrane pellet)
The series can be described thus: biochemical. The format is biochemical. The conditions noted are these: for guanylyl cyclase activation by peptide: 10 μM peptide, presence or absence of 1 mM ATP; for maximum inhibition of guanylyl cyclase: with or without ST; for inhibition at 1000 µM: read-out: decrease of Vmax of guanylyl cyclase. How it is done:
Membranes were prepared from rat intestinal mucosa cells as described previously (Gazzano et al., (1991) Infect. Immun., 59, 1552-1557, which is incorporated herein by reference). Briefly, Sprague-Dawley rats were sacrificed, small intestine removed and rinsed in ice-cold 0.9% NaCl. All procedures were conducted at 4° C. The mucosal layer was scraped from the intestine and homogenized in 50 mM Tris-HCl (pH 7.6) containing 1 mM dithiothreitol, 1 mM EDTA and 1 mM phenylmethylsulfonyl fluoride, (TED) supplemented with 0.25M sucrose (TEDS). Homogenates were centrifuged at 100,000×g for 60 minutes and the resulting pellet was sequentially washed in (i) TED supplemented with 0.5M KCl, (ii) TED:TEDS (1:1) and (iii) TED. The final pellet was homogenized in TED at a protein concentration of 5-10 mg/mL and aliquots were stored at -70° C.
Guanylyl cyclase activity was assayed as described previously (Waldman et al., (1984) J. Infect. Dis., 149, 83-89, which is incorporated herein by reference). Membranes were incubated at 37° C. in a final volume of 100 μl in the presence of 50 mM Tris-HCl (pH 7.6) containing 10 mM theophylline, 7.5 mM creatine phosphate/[…] creatine phosphokinase (160 U/mg of protein), GTP, manganese or magnesium cofactor (2 mM in excess of nucleotide) and ST and/or adenine nucleotide where indicated. Reactions were initiated by addition of membrane, incubated 5 minutes and terminated by adding 400 μl of 50 mM sodium acetate (pH 4.0) and boiling for 5 minutes. Following acetylation, samples were diluted with 50 mM NaAc containing 20 mM CaCl2. Generated cGMP was quantified by radioimmunoassay as described previously (Waldman et al., (1984) J. Infect. Dis., 149, 83-89). Radioimmunoassays were performed in triplicate, enzyme reactions were performed in duplicate, and results are representative of at least 3 experiments. Enzyme activity was linear with respect to protein concentration and time for all experiments.
Protein concentration was measured by the method of Bradford (Bio-Rad) using bovine serum albumin as standard (Bradford, M. M., (1976) Anal. Biochem., 72, 248-254). All assays were performed in duplicate and data are representative of at least 3 experiments. Values reported for the S0.5 and Vmax are equivalent to the concentration of substrate yielding half-maximum guanylyl cyclase activity and the maximum velocity of the enzyme activity, respectively. All nucleotides were obtained from Sigma, except 2-chloroadenosine 5'-triphosphate (2ClATP) which were from Research Biochemicals Incorporated (Natick, Mass.).

The subject of series [2] is GC-C in membranes from T84 and Caco 2 cells. The series can be described thus: Guanylyl cyclase activity in membranes prepared from T84 and Caco 2 cells. Type of series: biochemical. The source says: Guanylyl cyclase C undergoes post-translations processing yielding multiple ST-binding proteins detected in crosslinking studies utilizing ^125 I-ST or by Western blot analysis (Vaandrager et al., (1993) J. Biol. Chem., 268, 2174-2179; Vaandrager et al., (1993) J. Biol. Chem., 268, 19598-19603; Ivens et al., (1990) Infect. Immun., 58, 1817-1820; de Sauvage et al., (1993) J. Biol. Chem., 267, 6479-6482; Cohen et al., (1993) J. Cell. Physiol., 156, 138-144). Post-translational processing of GC-C appears to reflect heterogenicity of glycosylation and proteolysis. Processing has been observed in membranes examined from intestinal mucosal cells, intestinal cells grown in vitro, and mammalian cells expressing cloned rat or human GC-C. Thus, the shift in apparent cooperativity with associated changes in Hill coefficients induced by 2-substituted adenine nucleotides could reflect differences in their effects on different populations of GC-C in intestinal membranes. Guanylyl cyclase C is the predominant, […], member of the particulate guanylyl cyclase family expressed by T84 and Caco 2 cells in vitro (Vaandrager et al., (1992) Gastroenterology, 102, 1161-1169). […]

Another series concerns P2y purinergic receptors. The conditions noted are these: cited from earlier work.
A further series concerns ST receptor (GC-C). Description: ST receptor binding assay ([125I]-ST) in rat intestinal membranes. Conditions: 1 mM nucleotide, presence or absence of GTP and magnesium. The procedure:
Membranes were prepared from rat intestinal mucosa cells as described previously (Gazzano et al., (1991) Infect. Immun., 59, 1552-1557, which is incorporated herein by reference). Briefly, Sprague-Dawley rats were sacrificed, small intestine removed and rinsed in ice-cold 0.9% NaCl. All procedures were conducted at 4° C. The mucosal layer was scraped from the intestine and homogenized in 50 mM Tris-HCl (pH 7.6) containing 1 mM dithiothreitol, 1 mM EDTA and 1 mM phenylmethylsulfonyl fluoride, (TED) supplemented with 0.25M sucrose (TEDS). […]
ST binding was quantified as described previously (Hugues et al., (1991) Biochemistry, 30, 10738-10745, which is incorporated herein by reference). […] Parallel incubations contained excess (10^-6 M) unlabeled ST to quantify non-specific binding. Reaction mixtures were incubated for 40 minutes at 37° C. and bound [^125 I]-ST was separated from free ligand by vacuum filtration through Whatman (GF/B glass fiber filters pretreated with 0.3% polyethyleneimine. Filters were washed with 10 ml of 20 mM phosphate-buffered saline (pH 7.2) containing 1 mM EDTA. Radioactivity which remained on the filter was quantified in a Packard γ-counter. Specific binding was determined by subtracting non-specific binding from the total [^125 I]-ST bound in the absence of unlabeled ligand. Non-specific binding was routinely less than 20% of total binding.

Setting [3] is: magnesium cofactor, basal and ST (1 μM)-activated.
[4] abbreviates: manganese cofactor (1.6 without nucleotide).

The Ki is a dissociation constant, usually derived from enzyme kinetics or from competition with a known ligand.

T1 sequence (P23897 23-1072): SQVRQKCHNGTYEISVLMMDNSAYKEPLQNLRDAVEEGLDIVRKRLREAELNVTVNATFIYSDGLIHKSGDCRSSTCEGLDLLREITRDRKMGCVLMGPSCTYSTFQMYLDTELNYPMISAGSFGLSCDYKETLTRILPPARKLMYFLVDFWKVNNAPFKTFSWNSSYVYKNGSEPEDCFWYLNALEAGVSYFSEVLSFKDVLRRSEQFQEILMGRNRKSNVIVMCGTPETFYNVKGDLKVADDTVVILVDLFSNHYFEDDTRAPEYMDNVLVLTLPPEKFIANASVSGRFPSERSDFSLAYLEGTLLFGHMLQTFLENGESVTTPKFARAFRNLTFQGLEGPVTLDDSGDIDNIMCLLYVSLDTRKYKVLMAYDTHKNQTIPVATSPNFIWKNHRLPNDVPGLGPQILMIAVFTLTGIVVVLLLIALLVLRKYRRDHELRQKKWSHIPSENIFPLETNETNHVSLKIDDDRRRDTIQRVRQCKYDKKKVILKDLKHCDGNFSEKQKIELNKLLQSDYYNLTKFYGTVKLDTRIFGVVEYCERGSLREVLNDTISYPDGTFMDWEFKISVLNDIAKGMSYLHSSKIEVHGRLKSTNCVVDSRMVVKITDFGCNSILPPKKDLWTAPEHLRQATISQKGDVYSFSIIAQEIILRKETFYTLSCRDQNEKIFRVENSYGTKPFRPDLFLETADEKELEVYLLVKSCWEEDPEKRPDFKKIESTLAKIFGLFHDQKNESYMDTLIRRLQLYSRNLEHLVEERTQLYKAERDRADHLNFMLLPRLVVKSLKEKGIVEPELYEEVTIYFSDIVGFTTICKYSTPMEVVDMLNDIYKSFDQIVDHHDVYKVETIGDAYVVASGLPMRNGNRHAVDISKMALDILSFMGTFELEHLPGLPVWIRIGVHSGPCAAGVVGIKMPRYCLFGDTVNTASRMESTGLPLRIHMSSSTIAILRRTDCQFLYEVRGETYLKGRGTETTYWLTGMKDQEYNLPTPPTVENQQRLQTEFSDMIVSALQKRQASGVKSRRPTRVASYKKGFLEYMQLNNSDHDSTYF

For `Nc1ncnc2c1ncn2[C@@H]1O[C@H](COP(O)(O)=S)[C@@H](O)[C@H]1O` [AMPS, adenosine 5'-O-thiomonophosphate, reference compound], the “effect on guanylyl cyclase activity” value was “potentiated guanylyl cyclase activation by ST in a concentration-dependent fashion” in series [1] (setting [3]) and “did not significantly inhibit guanylyl cyclase” in series [1] (manganese cofactor). Further, the “Ka to potentiate ST-activation of guanylyl cyclase when 2ClATP is incorporated” value in series [1] (with 2ClATP at 0.3 mM) was “unchanged”.
As to “ANP: atrial natriuretic peptides, ligand of GC-A [reference compound]”, in series [1], the “guanylyl cyclase activation by peptide” value was “did not exhibit guanylyl cyclase activation”.
For `Nc1nc(Cl)nc2c1ncn2[C@@H]1O[C@H](CO)[C@@H](O)[C@H]1O` [2ClAdo], in series [1] (manganese cofactor), the “effect on guanylyl cyclase activity” value was “did not significantly inhibit guanylyl cyclase”.
Regarding `CSc1nc(N)c2ncn([C@@H]3O[C@H](COP(=O)(O)OP(=O)(O)OP(=O)(O)O)[C@@H](O)[C@H]3O)c2n1` [2MeSATP], the Ki in series [1] (Ki for inhibition of guanylyl cyclase, 20 μM GTP) was determined as 390 ± 260 µM; in series [1] (Ki for inhibition of guanylyl cyclase, 1000 μM GTP), 280 ± 180 µM. Further, in series [1] (magnesium cofactor), the “Ki values in the presence or absence of ST” value was “not significantly different”. Besides, the “Hill coefficient of guanylyl cyclase in the presence of nucleotide” value in series [1] (magnesium cofactor, 1 mM nucleotide, presence and absence of ST) is “about 1.0”; in series [1] (setting [4]) it was 0.7. In addition, the “effect on guanylyl cyclase activity” value is “inhibited guanylyl cyclase activity” in series [1] (setting [3]) and “inhibited guanylyl cyclase in a concentration-dependent fashion” in series [1] (manganese cofactor). In addition, in series [1] (magnesium cofactor), the “maximum inhibition of guanylyl cyclase” value was more than 95%. Besides, the “effect on Vmax and S0.5” value in series [1] (magnesium cofactor, nucleotide 1 mM, presence or absence of ST) is “lowered the Vmax without significantly changing the S0.5”. Also, the “guanylyl cyclase activity inhibited” value in series [1] (manganese cofactor) is reported as more than 95%. In addition, the “effect on S0.5” value in series [1] (manganese cofactor, 1 mM nucleotide) was “only a small effect on the S0.5”. For the same compound, the inhibition at 1000 µM in series [1] is more than 90%. Besides, in series [2], the “effect on cooperativity of GC-C” value is “shift from positive to negative cooperativity”. Also, the “inhibition of GC-C” value in series [2] was “potently inhibited GC-C”.
With `Nc1ncnc2c1ncn2[C@@H]1O[C@H](COP(=O)(O)CP(=O)(O)OP(=O)(O)O)[C@@H](O)[C@H]1O` [AMPCPP, α,β-methylene adenosine 5'-triphosphate, reference compound], the “ligand potency for P2y receptors” value in the series with P2y purinergic receptors is “poor ligand for P2y receptors”.
As for `Nc1ncnc2c1ncn2[C@@H]1O[C@H](CO[P@](=O)(O)O[P@](=O)(O)O[P@@](=O)(O)S)[C@@H](O)[C@H]1O` [ATPγS, adenosine 5'-O-(3-thiotriphosphate), reference compound], the “maximal activation of guanylyl cyclase” value in series [1] (magnesium cofactor, in the presence of ST (1 μM)) is reported as 2- to 3 fold. Also, the “effect on guanylyl cyclase activity” value in series [1] (manganese cofactor) is given as “inhibited guanylyl cyclase in a concentration-dependent fashion”.
Take `Nc1ncnc2c1ncn2[C@@H]1O[C@H](COP(=O)(O)OP(O)(O)=S)[C@@H](O)[C@H]1O` [ADPβS, adenosine 5'-O-(2-thiodiphosphate), reference compound]: the “ligand potency for P2y receptors” value with P2y purinergic receptors is given as “potent ligand for P2y receptors”.
As for `Nc1nc(Cl)nc2c1ncn2[C@@H]1O[C@H](COP(=O)(O)OP(=O)(O)OP(=O)(O)O)[C@@H](O)[C@H]1O` [2ClATP, 2-chloroadenosine 5'-triphosphate], the Ki in series [1] (Ki (concentration yielding half-maximum inhibition)) turned out to be 300 µM. Besides, the “guanylyl cyclase activity inhibited” value in series [1] (in the presence of maximally activating concentrations of AMPS) and in series [1] (manganese cofactor) was more than 95% in each case. Further, the “Ki values in the presence or absence of ST” value in series [1] (magnesium cofactor) was “not significantly different”. For the same compound, the “effect on guanylyl cyclase activity” value is given as “inhibited guanylyl cyclase activity” in series [1] (setting [3]) and “inhibited guanylyl cyclase in a concentration-dependent fashion” in series [1] (manganese cofactor). For the same compound, in series [1] (magnesium cofactor), the “maximum inhibition of guanylyl cyclase” value is reported as more than 95%. Moreover, the “Ki when AMPS is incorporated in enzyme incubations” value in series [1] (with maximally activating AMPS (3 mM)) is recorded as “unchanged”. For the same compound, the “specific binding of [125I]-ST to intestinal membranes” value in the series with ST receptor (GC-C) is given as “unchanged”.
For the compound “CNP: C-type natriuretic peptide, ligand of GC-B [reference compound]”, the “guanylyl cyclase activation by peptide” value in series [1] is “did not exhibit guanylyl cyclase activation”.
Take `Nc1ncnc2c1ncn2[C@@H]1O[C@H](COP(=O)(O)OP(=O)(O)OP(=O)(O)O)[C@@H](O)[C@H]1O` [ATP, reference compound]: the entries for the “effect on guanylyl cyclase activity” value in series [1] (setting [3]) and in series [1] (manganese cofactor) were “activated guanylyl cyclase in a concentration-dependent manner but with a lower efficacy than ATPγS” and “inhibited guanylyl cyclase in a concentration-dependent fashion”, respectively. For the same compound, in series [1] (setting [4]), the “Hill coefficient of guanylyl cyclase in the presence of nucleotide” value is reported as “less than 1.0”. Moreover, the “S0.5 of guanylyl cyclase in the presence of nucleotide” value in series [1] (manganese cofactor, 1 mM nucleotide (0.08 mM without)) is recorded as 0.25 mM. In addition, the “concentration at which the nucleotide inhibits guanylyl cyclase activity (biphasic dose-response)” value in series [1] (rat intestinal membranes) is reported as “above 1 mM”. In addition, in series [1], the inhibition at 1000 µM worked out at 80%.
